Patent publication US11413278B2, “Compounds and methods for promoting stress resistance” (priority 2015, dated 2022)
Entries after “also recorded” stand apart in the source; their conditions may differ. Where two headings read alike, the source gives them in different places.

Columns and labels:
mTOR = mTOR inhibition (RPS6 phosphorylation status), In-Cell Western; assay type: cell-based, human
Method in brief: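 WI-38 cells exposed to compounds at 5, 10 and 20 μM for 24 hrs. Fixed cells co-stained overnight at 4° C with anti-RPS and anti-pRPS6 (Ser-235/236) antibodies, then DyLight 680/800 secondaries. Phospho-RPS6 relative to total RPS6 read by near-infrared In-Cell Western imaging.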

[1] = tested on: human dermal fibroblast (HDF) primary cells; assay: H2O2-resistance in primary human dermal fibroblasts; assay type: cell-based; details: for fold induction at 10 µM: Homo sapiens; for Assay 6: H2O2-resistant, at 10 uM, human dermal fibroblast (HDF) primary cells: YES/NO
WI-38 cells [2] = assay: CdCl2 (cadmium) resistance assay; assay type: cell-based, human; details: for fold induction at 10 µM: Homo sapiens, 12 h; for Assay 4: H2O2- & Cd-resistant / Assay 2: Cadmium-resistant: YES/NO; for Assay 2: Cadmium-resistant: * indicates partial
Method in brief: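 WI-38 cells were given compounds at five final concentrations (0.25–20 μM) in triplicate, followed by cadmium or MMS for 12 h. For MMS, medium was switched from OptiMEM+10% FBS to serum-free DMEM+2% BSA when compounds were added, 24 h before stressor. Two independent assays were run, analysed by global variance t-test.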

WI-38 cells [3] = tested on: WI-38 cells
Method: WI-38 cells were seeded on 384-well plates for 24 hrs and then incubated with small molecules for 24 hrs. […] Images were collected on an INCell Analyzer 2000 (GE) and analyzed with the Developer software.

WI-38 cells [4] = assay: Long-term effects on cell viability (5 days, ATP; morphology, PI imaging); assay type: cell-based; details: for Luminescence signal for ATP measurement, day-1 Average / Luminescence signal for ATP measurement, day-2 Average / Luminescence signal for ATP measurement, day-3 Average / Luminescence signal for ATP measurement, day-4 Average / Luminescence signal for ATP measurement, day-5 Average: n = 6, day-0 luminescence = 320956 ± 24708; for viability at 10 µM: Homo sapiens, WI-38, 120 h, read-out: ATP luminescence by day-5 normalized;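 for Luminescence signal for ATP measurement, day-2 Average: compounds at 10 µM with ATP read daily over 5 days of treatment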;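 for Luminescence signal for ATP measurement, day-3 Average: compounds at 10 µM with ATP read daily over 5 days of treatment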;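 for Luminescence signal for ATP measurement, day-4 Average: compounds at 10 µM with ATP read daily over 5 days of treatment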;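 for Luminescence signal for ATP measurement, day-5 Average: compounds at 10 µM with ATP read daily over 5 days of treatment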
[5] = Experiment 1, HDF cells, read-out: Experiment 1, HDF cells (under H2O2 stress treatment), at 10 uM (fold change)
[6] = Experiment 2, HDF cells, read-out: Experiment 2, HDF cells (under H2O2 stress treatment), at 10 uM (fold change)
[7] = Exp. 1, WI-38 cells, 10 uM, normalized ATP measurement, read-out: Exp. 1, under Cd2Cl2 stress treatment, at 10 uM (fold change)
[8] = Exp. 2, WI-38 cells, 10 uM, normalized ATP measurement, read-out: Exp. 2, under Cd2Cl2 stress treatment, at 10 uM (fold change)
[9] = WI-38 cells, 10 μM, both stressors
[10] = score in summary of 38 core set hits
[11] = no H2O2 stress, 10 uM, negative control 0.41% ± 0.23%
[12] = Batch 1, 10 μM, day-5, DMSO ctrl = 100.0%

| Compound | G = mTOR down-regulation (mTOR; 2-point score) | G = mTOR down-regulation (mTOR; summary score) | fold induction at 10 µM [1, 5] | fold induction at 10 µM [1, 6] | Assay 6: H2O2-resistant, at 10 uM, human dermal fibroblast (HDF) primary cells [1] | CdCl2-resistant (WI-38 cells [2]) | H2O2- & CdCl2-resistant (WI-38 cells [2]) | fold induction at 10 µM (WI-38 cells [2]; [7]) | fold induction at 10 µM (WI-38 cells [2]; [8]) | CdCl2-resistant (WI-38 cells [2]; WI-38 cells, 10 μM) | H2O2- & CdCl2-resistant (WI-38 cells [2]; [9]) | Assay 4: H2O2- & Cd-resistant (WI-38 cells [2]) | Assay 2: Cadmium-resistant (WI-38 cells [2]) | A = Cadmium resistant (WI-38 cells [2]; [10]) | A = Cadmium resistant (WI-38 cells [2]; summary score) | C = H2O2- & Cd-resistant (WI-38 cells [2]; summary score) | Percentage of propidium iodide-positive dead cells (no H2O2 stress treatment), at 10 uM (WI-38 cells [3]; [11]) | Luminescence signal for ATP measurement, day-1 Average (WI-38 cells [4]; Batch 1, 10 μM) | Luminescence signal for ATP measurement, day-2 Average (WI-38 cells [4]; Batch 1, 10 μM) | Luminescence signal for ATP measurement, day-3 Average (WI-38 cells [4]; Batch 1, 10 μM) | also measured |
| --- | --- | --- | --- | --- | --- | --- | --- | --- | --- | --- | --- | --- | --- | --- | --- | --- | --- | --- | --- | --- | --- |
| O=C1NCCCc2cc(Cl)sc21 [O1] | 0 | 0 | 2.95 | 17.8 | YES | YES | YES | 1.84 | 1.86 | YES | YES | YES | YES | 1 | 1 | 1 | 0.30% ± 0.13%, | 461478 | 722566 | 824266 | Luminescence signal for ATP measurement, day-4 Average (WI-38 cells [4]; Batch 1, 10 μM): 1101026; Luminescence signal for ATP measurement, day-5 Average (WI-38 cells [4]; Batch 1, 10 μM, day-5): 977541; viability at 10 µM (WI-38 cells [4]; [12]): 95.2%; O = Potential toxicity (WI-38 cells [4]; human, 5 days, 10 μM): 0; Q = Potential toxicity (WI-38 cells [4]; human, 5 days, 10 μM): 0 |
| CC1C(=O)C(C)C(c2cc(Cl)ccc2O)NC1c1cc(Cl)ccc1O (stereo not shown) [O6] | 0 | 0 | 285 | 22.2 | YES | YES | YES | 2.18 | 2.05 | YES | YES | YES | YES | 1 | 1 | 1 | 0.36% ± 0.10%, |  |  |  | O = Potential toxicity (WI-38 cells [4]; human, 5 days, 10 μM): 0; Q = Potential toxicity (WI-38 cells [4]; human, 5 days, 10 μM): 0 |
| O=C(Nc1nc(C23CC4CC(CC(C4)C2)C3)cs1)C(c1ccccc1)c1ccccc1 [O10] | 0 | 0 | 12.6 | 8.91 | YES | YES | YES | 2.73 | 2 | YES | YES | YES | YES | 1 | 1 | 1 | 0.54% ± 0.16%, | 560153 | 740923 | 847945 | Luminescence signal for ATP measurement, day-4 Average (WI-38 cells [4]; Batch 1, 10 μM): 1079863; Luminescence signal for ATP measurement, day-5 Average (WI-38 cells [4]; Batch 1, 10 μM, day-5): 1066130; viability at 10 µM (WI-38 cells [4]; [12]): 104%; O = Potential toxicity (WI-38 cells [4]; human, 5 days, 10 μM): 0; Q = Potential toxicity (WI-38 cells [4]; human, 5 days, 10 μM): 0 |
| COc1cc2c(no[n+]2[O-])n2nnnc12 [O11] | 0 | 0 |  |  | YES | YES | YES |  |  | YES | YES | YES | YES | 1 | 1 | 1 |  | 310373 | 412288 | 484520 | Experiment 1, HDF cells (under H2O2 stress treatment), at 10 uM (fold change) ([1]; Experiment 1, HDF cells): 16.57 fold change; Experiment 2, HDF cells (under H2O2 stress treatment), at 10 uM (fold change) ([1]; Experiment 2, HDF cells): 55.68 fold change; Exp. 1, under CdCl2 stress treatment, at 10 uM (fold change) (WI-38 cells [2]; Exp. 1, WI-38 cells, 10 uM, normalized ATP measurement): 3.78 fold change; Exp. 2, under CdCl2 stress treatment, at 10 uM (fold change) (WI-38 cells [2]; Exp. 2, WI-38 cells, 10 uM, normalized ATP measurement): 2.80 fold change; PI cell-death imaging without H2O2 (indicating potential toxicity) (WI-38 cells [3]): YES; PI-positive dead cells under normal conditions (WI-38 cells [3]; human): 1.9%±0.7%; Percentage of propidium iodide-positive dead cells (no H2O2 stress treatment), at 10 uM (WI-38 cells [3]; human): 1.86% ± 0.71%,; Long-term cell toxicity (cell number, morphology, PI-positive dead cells) (WI-38 cells [4]; 10 μM, up to 5 days, no H2O2): reduced cell number substantially and increased the fraction of PI-positive dead cells; also recorded: less cells, and more cells scored positive for propidium iodide; Luminescence signal for ATP measurement, day-4 Average (WI-38 cells [4]; Batch 1, 10 μM): 642267; ATP luminescence by day-5 normalized (WI-38 cells [4]; [12]): 61.7%; Luminescence signal for ATP measurement, day-5 Average (WI-38 cells [4]; Batch 1, 10 μM, day-5): 633963; Q = Potential toxicity (WI-38 cells [4]; negative point, cultured human cells): 1; O = Potential toxicity (WI-38 cells [4]; summary score): 1 |
| CCCC(=O)Nc1ccc(-c2cn3cccc(C)c3n2)cc1 [O12] | 0 | 0 | 264 | 49.2 | YES | YES | YES | 1.36 | 1.59 | YES | YES |  | NO * | 1 | 0 | 0 | 0.45% ± 0.05%, | 527095 | 702483 | 876448 | Luminescence signal for ATP measurement, day-4 Average (WI-38 cells [4]; Batch 1, 10 μM): 1128385; Luminescence signal for ATP measurement, day-5 Average (WI-38 cells [4]; Batch 1, 10 μM, day-5): 1117938; viability at 10 µM (WI-38 cells [4]; [12]): 109%; O = Potential toxicity (WI-38 cells [4]; human, 5 days, 10 μM): 0; Q = Potential toxicity (WI-38 cells [4]; human, 5 days, 10 μM): 0 |
